The values below are quoted from earlier work in patent US20120264961A1, “FE3O4-M(AU-LIKE)-NANOPARTICLES FOR ANTIBODY-CONSERVING TARGET-SPECIFIC PLATIN DELIVERY” (Brown University, priority 2009, published 2012).

Each structure is given as a SMILES string.

The conditions of this data set: water solubility.

On to `N.N.O=C([O-])C1(C(=O)[O-])CCC1.[Pt+2]` [carboplatin], for which the solubility is 22 mg/mL.

For orientation: solubility means the dissolved amount per volume that the medium holds.
